Read-outs that look alike come from different tables or passages of the source.
Experiments:
[1] = system: mouse malarial parasite Plasmodium vinckei; experiment: In vitro protease activity of malarial parasite, substrate Z-Phe-Arg-AMC; type: biochemical; details: read-out: P. vinckei IC50 (murine)
Text: (§1) The following table summarizes the comparative IC50 values for selected cysteine protease inhibitors against the human malarial parasite Plasmodium falciparum and the mouse malarial parasite Plasmodium vinckei. The substrate used to measure in vitro protease activity was Z-Phe-Arg-AMC.

[2] = system: human malarial parasite Plasmodium falciparum; experiment: as above; type: biochemical; details: read-out: P. falciparum IC50 (human)
Text: as §1

[3] = target: T1, Cathepsin B from human placenta (Homo sapiens, UniProt P07858); experiment: Inhibition of cathepsin B, Z-Arg-Arg-AMC fluorescence progress curves; type: biochemical; details: for Ki: corrected for substrate; for k/KI (kirr/KI): values without asterisk
T1 construct: Cathepsin B from human placenta, obtained from Sigma; purchased Sigma; host or cells: human placenta (tissue)
Outline: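 Human placental enzyme (~10 nM) in 50 mM phosphate pH 6.2 with 2.5 mM DTT and 2.5 mM EDTA, 50 μM Z-Arg-Arg-AMC, inhibitors 30-0.001 μM, 25° C. AMC fluorescence (ex 380/em 460 nm) progress curves fitted for kobs; kobs/[I] reported, with kirr, KI and kirr/KI substrate-corrected for selected compounds.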

Cloned cathepsin S = target: T2, Cloned cathepsin S (Homo sapiens, UniProt P25774); experiment: Inhibition of cathepsin S, Z-Val-Val-Arg-AMC fluorescence progress curves; type: biochemical; details: for Ki: corrected for substrate; for k/KI (kirr/KI): values without asterisk; for k/KI (kirr/KI) / kobs /[I]* (approximate second-order inactivation constant): 25° C., pH 6.5; for kobs /[I]* (approximate second-order inactivation constant): values marked *
T2 construct: made in house
Outline: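 Progress curves at 25 °C in 100 mM phosphate pH 6.5, 2.5 mM DTT, 2.5 mM EDTA, 0.01% Triton, enzyme <1 nM, 10 μM substrate, inhibitors 30-0.001 μM; AMC fluorescence ex 380/em 460 nm. kobs from nonlinear fits gave kobs/[I]; selected compounds yielded kirr, KI (substrate-corrected), kirr/KI.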

cruzain, from T. cruzi = cruzain, from T. cruzi (Trypanosoma cruzi, UniProt P25779); experiment: Inhibition of cruzain, as for cathepsin L; type: biochemical; details: for k/KI (kirr/KI): values without asterisk; for kobs /[I]* (approximate second-order inactivation constant): values marked *
Outline: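 Run as for cathepsin L with 1 nM cruzain in 50 mM phosphate pH […], 2.5 mM DTT, 2.5 mM EDTA, 5 μM Z-Phe-Arg-AMC, at 25 °C, inhibitors 30-0.001 μM; fluorescence (ex 380/em 460 nm) followed continuously. kobs fitted from progress curves and kobs/[I] reported; selected compounds gave kirr, KI, kirr/KI, with KI corrected by (1+[S]/Km).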

[4] = target: T3, Cathepsin L from rat liver (Rattus norvegicus, UniProt P07154); experiment: Inhibition of cathepsin L, Z-Phe-Arg-AMC fluorescence progress curves; type: biochemical; details: for Ki: corrected for substrate; for k/KI (kirr/KI): values without asterisk; for k/KI (kirr/KI) / kobs /[I]* (approximate second-order inactivation constant): 25° C., pH 6.2; for kobs /[I]* (approximate second-order inactivation constant): values marked *
T3 construct: Cathepsin L from rat liver; from tissue; host or cells: rat liver
Outline: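 Progress curves of AMC release (380/460 nm) over at least 3 inactivation half-times were fitted to kobs, reported as kobs/[I] or, via 1/[I] vs 1/kobs, kirr, KI (substrate-corrected) and kirr/KI.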

[5] = system: Trypanosoma cruzi amastigote infected macrophages; experiment: In vitro antiprotozoal activity, Trypanosoma cruzi; type: cell-based
Procedure: (§2) In this table, the in vitro antiprotozoal activities of the indicated compounds were measured as percentage inhibition of Leishmania donovani amastigote infecteda mouse peritoneal macrophages, Trypanosoma cruzi amastigote infected macrophages, and Trypanosoma brucei extracellular bloodstream forms.

[6] = system: Leishmania donovani amastigote infected mouse peritoneal macrophages; experiment: In vitro antiprotozoal activity, Leishmania donovani; type: cell-based; design: key to percentage inhibition, L. donovani: the term "T" indicates the molecule to have displayed cytotoxicity
Procedure: as §2

[7] = system: Trypanosoma brucei extracellular bloodstream forms; experiment: In vitro antiprotozoal activity, Trypanosoma brucei; type: cell-based
Procedure: as §2

T. cruzi = T. cruzi infected irradiated J774 cells; type: cell-based; design: dose or concentration left out as unconfirmed; details: thereafter without inhibitor; compounds listed in decreasing order of effectiveness
Procedure: Irradiated J774 cells were infected with T. cruzi and simultaneously treated with […] of peptidyl vinyl derivatives for 5 days; thereafter without inhibitor. The following compounds were effective in decreasing order: Mu-Phe-ArgVSPh, Boc-Tyr(I2)-HphVSPh, Mu-Phe-VaIVSPh, Boc-Tic-HphVSPh, Mu-Phe-Ser(OBzl)VSPh, Mu-Leu-HphVSPh, Mu-Tyr(I2)-HphVSPh, Mu-Phe-LysVSPh, Mu-Tic-HphVSPh.

calpain = experiment: Inhibition (inactivation) of calpain, Suc-Leu-Tyr-AMC; type: biochemical; details: pH 7.5, 5 mM CaCl2, 25° C.; for kobs /[I]*: values marked * (or %); for k/KI (kirr/KI): values without asterisk
Procedure: The inhibitors were tested against calpain at 1 or 2% as for the other enzymes. The reaction conditions were 50 mM Tris, pH 7.5, 5 mM CaCl2, 2.5 mM DTT, assayed at 25° C. The substrate was 100 μM Suc-Leu-Tyr-AMC.

cruzain, from T. cruzi, sequence (P25779 123-337 limits assumed): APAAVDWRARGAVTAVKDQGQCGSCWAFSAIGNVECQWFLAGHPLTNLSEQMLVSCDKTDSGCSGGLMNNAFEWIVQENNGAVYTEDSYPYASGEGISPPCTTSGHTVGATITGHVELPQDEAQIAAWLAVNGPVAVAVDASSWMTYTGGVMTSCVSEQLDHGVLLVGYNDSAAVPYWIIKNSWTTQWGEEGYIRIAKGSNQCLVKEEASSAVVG
T2 sequence (P25774 115-331): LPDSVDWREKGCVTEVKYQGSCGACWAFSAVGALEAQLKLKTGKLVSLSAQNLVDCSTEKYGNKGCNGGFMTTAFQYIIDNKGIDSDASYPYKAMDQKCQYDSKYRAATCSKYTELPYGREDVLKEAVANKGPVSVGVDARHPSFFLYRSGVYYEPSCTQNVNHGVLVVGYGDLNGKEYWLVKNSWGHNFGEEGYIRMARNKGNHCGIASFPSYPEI
T3 sequence (P07154 114-288 limits assumed): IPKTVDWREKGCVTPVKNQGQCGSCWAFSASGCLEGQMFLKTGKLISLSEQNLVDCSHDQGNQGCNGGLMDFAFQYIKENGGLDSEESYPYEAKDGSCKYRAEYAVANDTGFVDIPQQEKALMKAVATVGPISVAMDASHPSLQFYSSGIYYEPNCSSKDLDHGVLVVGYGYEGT
T3 sequence (P07154 291-334 limits assumed): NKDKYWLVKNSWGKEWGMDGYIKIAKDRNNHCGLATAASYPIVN

Molecule | IC50 ([1]; cells printed in nM) [nM] | IC50 ([2]; cells printed in nM) [nM] | kirr [3] [s⁻¹] | Ki [3] [µM] | k/KI (kirr/KI) ([3]; 25° C., pH 6.2) | k/KI (kirr/KI) (Cloned cathepsin S) | k/KI (kirr/KI) (cruzain, from T. cruzi) | kirr [4] [s⁻¹] | Ki [4] [µM] | k/KI (kirr/KI) [4] | percentage inhibition, T. cruzi ([5]; 3 uM) [%] | percentage inhibition, T. cruzi ([5]; 10 uM) [%] | percentage inhibition, T. cruzi ([5]; 30 uM) [%] | percentage inhibition, T. cruzi ([5]; 90 uM) [%] | percentage inhibition, L. donovani ([6]; 3 uM) [%] | percentage inhibition, L. donovani ([6]; 10 uM) [%] | percentage inhibition, L. donovani ([6]; 30 uM) [%] | percentage inhibition, L. donovani ([6]; 90 uM) | kobs /[I]* (approximate second-order inactivation constant) (cruzain, from T. cruzi) | effectiveness against T. cruzi in J774 cells (T. cruzi) | also measured
COC(=O)C1CCCN1C(=O)C(CC(C)C)NC(=O)/C=C/[C@H](CCc1ccccc1)NC(=O)[C@H](Cc1ccccc1)NC(=O)N1CCOCC1 (stereo partly drawn) [Mu-Phe-HphVAMLeu-ProOMe, (S)-(E)-(N-leucylprolinemethylester)-4-(4-morpholinecarbonylphenyl-alanyl)amino-6-phenyl-2-hexenamide] | 600 | 80 | – | – | – | – | – | – | – | – | – | – | – | – | – | – | – | – | – | – | –
O=C(NCCCC[C@@H](/C=C/S(=O)(=O)c1ccccc1)NC(=O)[C@H](Cc1ccccc1)NC(=O)N1CCOCC1)OCc1ccccc1 [Mu-Phe-Lys(Z)VSPh, (S)-(E)-7-(benzyloxycarbonyl)amino-3-(4-morpholinecarbonylphenylalanyl)-amino-1-phenylsulfonyl-1-heptene] | 80 | 100 | 0.18 | 4.7 | 39,200 M^-1 sec^-1 | 2,600,000 M^-1 sec^-1 | 44,500 M^-1 sec^-1 | 0.45 | 3.8 | 120,000 M^-1 sec^-1 | 0 | 0 | 0 | 0 | 0 | 0 | 0 | 0% | – | – | kirr (Cloned cathepsin S): 0.14 s⁻¹; Ki (Cloned cathepsin S): 0.054 µM; ED50, T. brucei [7]: 3.64 µM; percentage inhibition, T. brucei ([7]; 1 uM): 19.8%; percentage inhibition, T. brucei ([7]; 3 uM): 29.9%; percentage inhibition, T. brucei ([7]; 10 uM): 81.3%; percentage inhibition, T. brucei ([7]; 30 uM): 100%; percentage inhibition, T. brucei ([7]; 90 uM): 100%
(S)-(E)-3-(4-morpholinecarbonylphenylalanyl)amino-4-methyl-1-phenylsulfonyl-1-pentene [Mu-Phe-ValVSPh] | – | – | – | – | – | 290,000 M^-1 sec^-1 | – | 0.19 | 2.6 | 74,000 M^-1 sec^-1 | 5.5 | 6.2 | 18.9 | 74.2 | 100 | 100 | 100 | T | 28,000 M^-1 sec^-1 | effective | IC50 ([1]; cells printed in μM): 1000 nM; IC50 ([2]; cells printed in μM): 1000 nM; kirr (Cloned cathepsin S): 0.039 s⁻¹; Ki (Cloned cathepsin S): 0.13 µM; ED50, T. cruzi [5]: 61.88 µM; ED50, T. brucei [7]: 13.85 µM; percentage inhibition, T. brucei ([7]; 1 uM): 11.9%; percentage inhibition, T. brucei ([7]; 3 uM): 13.5%; percentage inhibition, T. brucei ([7]; 10 uM): 35.4%; percentage inhibition, T. brucei ([7]; 30 uM): 72.7%; percentage inhibition, T. brucei ([7]; 90 uM): 100%; kobs /[I]* (calpain): 180 M⁻¹ s⁻¹
(S)-(E)-3-[4-tert-butoxycarbonyl-(3,5-diiodotyrosyl)]-amino-5-phenyl-1-phenylsulfonyl-1-pentene [Boc-Tyr(I2)-HphVSPh] | – | – | – | – | – | – | – | – | – | – | – | – | – | – | – | – | – | – | 280,000 M^-1 sec^-1 | effective | kobs /[I]* (approximate second-order inactivation constant) ([3]; values marked *, 25° C., pH 6.2): 1400 M⁻¹ s⁻¹; kobs /[I]* (approximate second-order inactivation constant) (Cloned cathepsin S): 210,000 M^-1 sec^-1; kobs /[I]* (approximate second-order inactivation constant) [4]: 105,000 M^-1 sec^-1; k/KI (kirr/KI) (calpain): 0 M⁻¹ s⁻¹
(S)-(E)-4-(4-morpholinecarbonylphenylalanyl)amino-6- phenyl-2-hexenoic acid [Mu-Phe-HphVA] | – | – | 0.038 | 85 | 450 M⁻¹ s⁻¹ | – | – | – | – | – | – | – | – | – | – | – | – | – | – | – | IC50 ([1]; cells printed in μM): 2000 nM; IC50 ([2]; cells printed in μM): 1000 nM
(S)-(E)-Benzyl 4-(4-morpholinecarbonylphenylalanyl)amino-6-phenyl-2-hexenamide [Mu-Phe-HphVAMBzl] | – | 200 | – | – | < 100 M⁻¹ s⁻¹ | – | – | – | – | – | 0 | 0 | 0 | 5.83 | 0 | 0 | 14.2 | 23.3% | 70,200 M^-1 sec^-1 | – | IC50 ([1]; cells printed in μM): 2000 nM; kobs /[I]* (approximate second-order inactivation constant) (Cloned cathepsin S): 10,800 M^-1 sec^-1; kobs /[I]* (approximate second-order inactivation constant) [4]: 2800 M⁻¹ s⁻¹; percentage inhibition, T. brucei ([7]; 3 uM): 0%; percentage inhibition, T. brucei ([7]; 10 uM): 0%; percentage inhibition, T. brucei ([7]; 30 uM): 0%; percentage inhibition, T. brucei ([7]; 90 uM): 0%; kobs /[I]* (calpain): < 50 M⁻¹ s⁻¹
(S,S)-(E)-3-[4-morpholinecarbonyl-(1,2,3,4-tetrahydro-3-isoquinoline-carbonyl)]amino-5-phenyl-1-phenylsulfonyl-1-pentene [Mu-Tic-HphVSPh] | – | – | – | – | 0 M⁻¹ s⁻¹ | – | 0 M⁻¹ s⁻¹ | – | – | – | – | – | – | – | – | – | – | – | – | effective | kobs /[I]* (approximate second-order inactivation constant) (Cloned cathepsin S): 630,000 M^-1 sec^-1; kobs /[I]* (approximate second-order inactivation constant) [4]: 12,600 M^-1 sec^-1; k/KI (kirr/KI) (calpain): 0 M⁻¹ s⁻¹
(S,S)-(E)-3-[tert-butoxycarbonyl-(1,2,3,4-tetrahydro-3-isoquinolinecarbonyl)]-amino-5-phenyl-1-phenylsulfonyl-1-pentene [Boc-Tic-HphVSPh] | – | – | – | – | – | 0 M⁻¹ s⁻¹ | 30,000 M^-1 sec^-1 | – | – | 0 M⁻¹ s⁻¹ | – | – | – | – | – | – | – | – | – | effective | k/KI (kirr/KI) (calpain): 0 M⁻¹ s⁻¹
ethyl (S)-(E)-4-(4-morpholinecarbonylphenylalanyl)-amino-6-phenyl-2-hexenoate [Mu-Phe-HphVEOEt] | 300 | 300 | 0.19 | 19 | 10,100 M^-1 sec^-1 | – | – | 0.10 | 2.2 | 47,500 M^-1 sec^-1 | – | – | – | – | – | – | – | – | 80,400 M^-1 sec^-1 | – | –

Reference: patent US6287840A (Axys Pharmaceuticals, Inc., priority 1999, dated 2001)
